Assay results: PubChem BioAssay (NCI)
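Growth conditions: 96-well plates. Treatment: test compound, 48 hours, 5 concentrations. Analysis: linear interpolation between bracketing concentrations; unreached endpoints set to highest concentration. TGI: total growth inhibition.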

Assays:
Assay in all cases: NCI-60 cell line screen, 48 h
[1] = test system: SK-MEL-5 melanoma
[2] = test system: RXF 393 renal
[3] = test system: SK-MEL-2 melanoma
[4] = test system: SF-539 CNS
[5] = test system: RPMI-8226 leukemia
[6] = test system: SK-OV-3 ovarian
[7] = test system: K-562 leukemia
[8] = test system: MDA-MB-231 breast
[9] = test system: HOP-62 NSCLC
[10] = test system: MCF7 breast
[11] = test system: SN12C renal
[12] = test system: SR leukemia
[13] = test system: BT-549 breast
[14] = test system: HOP-92 NSCLC
[15] = test system: U251 CNS
[16] = test system: MDA-N
[17] = test system: LOX IMVI melanoma
[18] = test system: CAKI-1 renal
[19] = test system: HS 578T breast
[20] = test system: T-47D breast

Measured: TGI

O=C(O)C1CCCCC1C(=O)Nn1cnnc1 (stereo unspecified)
not listed: [18] | [19] | [20]
> 100 µM: all other assays above

Clc1nssc1=Nc1nonc1-c1ccccc1
37 µM: [1]
66.1 µM: [4]
68.6 µM: [12]
41.2 µM: [16]
42.4 µM: [11]
89.8 µM: [13]
34.6 µM: [18]
59.6 µM: [2]
34.5 µM: [8]
63.3 µM: [5]
70.1 µM: [7]
not listed: [19] | [20]
> 100 µM: all other assays above

C/C=C1\C=C(OC)CN(CCc2c[nH]c3ccccc23)C1
> 100 µM: [3] | [4] | [5] | [7] | [9] | [11] | [12] | [17]
53.3 µM: [1]

O=S(=O)(c1ccccc1)C(c1ccc2ccccc2n1)S(=O)(=O)c1ccccc1
not listed: [3] | [6] | [20]
> 100 µM: all other assays above

Cc1nc(C(N)=S)sc1C(=O)CC(=O)C(=O)Nc1ccccc1[N+](=O)[O-]
not listed: [8] | [10] | [11] | [13] | [16] | [19] | [20]
> 100 µM: all other assays above

N#Cc1c(=O)c2ccccc2n2c1[nH]c1ccccc12
43.8 µM: [12]
79.7 µM: [20]
not listed: [1] | [6] | [14] | [16]
> 100 µM: all other assays above

CC12CCC(C(Nc3cc(C(F)(F)F)cc(C(F)(F)F)c3)C1=O)C2(C)C (stereo unspecified)
not listed: [2] | [11] | [14] | [16] | [19]
> 100 µM: all other assays above

CCO/C=N\c1c(C#N)c(-c2ccc(Cl)cc2)cn1-c1ccc(C)cc1
not listed: [5] | [20]
> 100 µM: all other assays above

Cc1ccc(/C(O)=C/c2nc3c(nc2NC24CC5CC(CC(C5)C2)C4)c(=O)oc2ccccc23)cc1
not listed: [8] | [10] | [13] | [16] | [19] | [20]
> 100 µM: all other assays above

Nn1c(CCCCCCCCc2nnc(COc3ccc4ccccc4c3O)n2N)nnc1COc1ccc2ccccc2c1O
69.5 µM: [13]
> 100 µM: [3] | [6] | [7] | [10] | [11] | [15]
37.5 µM: [1]
99.2 µM: [5]
76.9 µM: [8]
80.3 µM: [2]
41.8 µM: [18]
60 µM: [14]

Nc1c2ccccc2nc2ccc3c(=O)cc(-c4ccccc4)oc3c12
2.63 µM: [18]
3.65 µM: [3]
3.48 µM: [6]
1.46 µM: [15]
2.34 µM: [4]
0.697 µM: [5]
2.52 µM: [8]
2.05 µM: [10]
2.91 µM: [2]
2.23 µM: [12]
59.7 µM: [13]
0.326 µM: [7]
2.13 µM: [16]
2.59 µM: [14]

CCOC(=O)N1c2c(ccn2C)-c2ccn(C)c2N1C(=O)OCC
25.6 µM: [17]
43.8 µM: [12]
> 100 µM: [1] | [9]
38.2 µM: [4]
38.8 µM: [3]
42.4 µM: [7]
54.3 µM: [5]
44.8 µM: [18]
63.7 µM: [14]
29.6 µM: [11]
77.3 µM: [6]
